≈ marks a conversion by molar mass, not a printed value. Some results are limits rather than exact numbers.

For this data set the following is noted: buffer; pH 7.4; 200.0 µM.
A word on the solubility (kinetic): it is the concentration staying in solution when a stock, usually in DMSO, is diluted into the medium. Take `Cn1c(=O)c2c(nc(SCC(=O)N3CCOCC3)n2C)n(C)c1=O`: the kinetic solubility is greater than 53 µg/mL.
On to `O=C(O)c1sccc1NC(=O)c1c(Cl)cccc1Cl`, for which the kinetic solubility is greater than 47.4 µg/mL.
As for `COc1ccc(S(=O)(=O)/C(C#N)=C/Nc2ccccc2F)cc1`, the kinetic solubility was 3.3 µg/mL (≈ 9.93 µM).
On to `O=C(NCCS(=O)(=O)N1CCCCCC1)c1ccccc1`, for which the kinetic solubility was greater than 46.6 µg/mL.
In the case of `CN(CC(=O)NC1CCCC1)S(=O)(=O)c1cnc[nH]1`, the kinetic solubility is greater than 43 µg/mL.
`COc1ccc(Nc2nc(C)cc(C)c2C#N)c(OC)c1` showed a solubility (kinetic) of less than 0.2 µg/mL.
`Cc1ccc([N+](=O)[O-])cc1NC(=S)NCCc1ccccc1`: the solubility (kinetic) was found to be 39.4 µg/mL (≈ 125 µM).
`O=C(Cc1ccc(Br)cc1)NCc1ccccc1` had a kinetic solubility of 4.1 µg/mL (≈ 13.5 µM).
In the case of `O=[N+]([O-])c1cccc2cn[nH]c12`, the solubility (kinetic) was greater than 24.5 µg/mL.
Regarding `CC1(C)C2CCC1(C)C(OC(=O)C[n+]1ccccc1)C2.[Cl-]` (configuration not stated), the kinetic solubility amounted to 39 µg/mL.
As to `Cc1ccc(NC(=O)COC(=O)C2CCC(=O)N2)c([N+](=O)[O-])c1` (configuration not stated), the solubility (kinetic) is greater than 48.2 µg/mL.
`CN1CCCN(C(=O)c2cccc3ccccc23)CC1` had a solubility (kinetic) greater than 40.3 µg/mL.
Turning to `CC(Sc1nc2ncc(Cl)cc2[nH]1)C(=O)Nc1ccc(C(N)=O)cc1` (configuration not stated), the solubility (kinetic) came to 9.3 µg/mL (≈ 24.7 µM).
Regarding `CCN(C(=S)NCc1ccccc1)c1cccc2ccccc12`, the solubility (kinetic) stood at 2.7 µg/mL (≈ 8.43 µM).
`CCCN(C(=O)CCl)C1=CCCCC1` came in with a solubility (kinetic) of 31 µg/mL (≈ 144 µM).
On to `O=C(CCn1ccnc1)Nc1cc(Cl)ccc1O`, for which the kinetic solubility was greater than 39.9 µg/mL.
Compound `Cc1ccc(N=CNc2ccc(C)cc2C)c(C)c1` displayed a solubility (kinetic) of 35.2 µg/mL (≈ 139 µM).
As to `O=C(Nc1ccccc1N1CCCCC1)c1ccc(OC(F)F)cc1`, the kinetic solubility came to 0.7 µg/mL (≈ 2.02 µM).
Next, `CCC(=O)c1ccc(OCC(=O)OCC(=O)NC2CCCCCCC2)cc1`: 48 µg/mL (≈ 128 µM); `COc1ccc(NC(=S)NCCN2CCOCC2)cc1`: greater than 44.3 µg/mL; `COc1ccccc1CNC(=O)COC(=O)c1ccc(C(=O)c2ccccc2)cc1`: 8.2 µg/mL (≈ 20.3 µM).
Next, `CC(NC(=O)c1ccco1)C(=O)N1CC=C(c2ccccc2)CC1` (configuration not stated): greater than 48.7 µg/mL.
The compound `CSc1cccc(NC(=S)N(C(C)C)C(C)c2ccccn2)c1` (configuration not stated) returned a solubility (kinetic) of 9.6 µg/mL (≈ 27.8 µM).
As for `O=C1CC(c2ccc(F)cc2)CC2=C1C=Nc1ccccc1N2` (configuration not stated), the figure is 0.7 µg/mL (≈ 2.29 µM); as for `CCCn1c(Nc2cccc(OC)c2)nc2ccccc21`, 2.1 µg/mL (≈ 7.46 µM); as for `CC1(C)Cc2sc3c(=O)[nH]c(=S)[nH]c3c2CO1`, greater than 40.3 µg/mL.
Consider `COc1cc2c(cc1OC)C(c1cccc(F)c1)CC(=O)N2` (configuration not stated), for which the kinetic solubility is greater than 45.2 µg/mL.
Take `Cc1nc(-c2ccccc2)ccc1C(=O)O`: the solubility (kinetic) is greater than 32 µg/mL.
Compound `Cc1ccc(OCC(=O)Nc2ccncc2)cc1` had a solubility (kinetic) of 35.1 µg/mL (≈ 145 µM).
Consider `CCOc1ccccc1Nc1cc(C)nc2ccc(C)cc12`, for which the kinetic solubility is greater than 43.9 µg/mL.
Next, `Cn1c(=O)oc2cc(S(=O)(=O)N3CCc4ccccc43)ccc21`: 0.5 µg/mL (≈ 1.51 µM).
Consider `O=C1CCN(C(=S)NCCc2ccccc2)CC1`, for which the kinetic solubility is greater than 39.4 µg/mL.
On to `CC(=O)Nc1ccc(OC(=O)N2CCCC2)cc1`, for which the kinetic solubility was greater than 37.2 µg/mL.
As for `COc1ccc(CCNC(=O)COC(=O)C2CC2)cc1`, the figure is 25.4 µg/mL (≈ 91.6 µM); as for `CC(C)c1ccc(-n2ccnc2SCC(=O)O)cc1`, greater than 41.5 µg/mL; as for `OC(CN1CCN(c2ccccc2F)CC1)c1ccc(F)cc1` (configuration not stated), greater than 47.8 µg/mL.
Compound `Cc1nc([N+](=O)[O-])c(C(=O)OCc2ccccc2)n1C` yielded a kinetic solubility of 37.6 µg/mL (≈ 137 µM).
Next, `CC(C)(C)c1cc(NC(=O)c2cccs2)no1`: 32.7 µg/mL (≈ 131 µM); `Cc1cccc(NC(=O)c2cccc(NC(=O)c3ccccc3)c2)n1`: 7.1 µg/mL (≈ 21.4 µM).
As to `C=CCSc1nnc(NC(=O)C2=COCCO2)s1`, the solubility (kinetic) was greater than 42.8 µg/mL.
`COc1ccccc1OCC#CCN1CCCC1.O=C(O)C(=O)O` had a kinetic solubility greater than 50.3 µg/mL.
In the case of `COc1cccc2c(Cl)c(CC=C(Cl)Cl)c(C)nc12`, the solubility (kinetic) was less than 0.7 µg/mL.
Next, `COc1ccc(Cc2n[nH]c(=S)n2N)cc1OC`: greater than 39.9 µg/mL; `CCOc1ccc(C(=O)NC(C(=O)N2CCC2)C(C)C)cc1` (configuration not stated): greater than 45.7 µg/mL.
`CCOC(=O)C1(C(F)(F)F)N=C(c2ccccc2F)OC(N(C)C)=N1` (configuration not stated) yielded a kinetic solubility of 42.2 µg/mL (≈ 117 µM).
Compound `CN(C)CCCNC(=S)Nc1ccc(-c2ccccc2)cc1` had a kinetic solubility of 42.8 µg/mL (≈ 137 µM).
Turning to `NC(=[NH2+])SCc1[nH+]cccc1O.[Cl-]`, the kinetic solubility turned out to be 35.3 µg/mL.
`O=C(NCc1ccccn1)C(=O)Nc1ccccc1` had a kinetic solubility greater than 38.3 µg/mL.
Next, `Cc1ccc(-c2c[n+](CC(=O)Nc3ccccc3)c3n2CCC3)cc1.[Cl-]`: greater than 55.2 µg/mL; `CC(C)CN(C(=O)CCNC(=O)c1ccc([N+](=O)[O-])cc1)C1CCS(=O)(=O)C1` (configuration not stated): 57 µg/mL (≈ 139 µM).
Next, `COc1ccccc1C(=O)c1nc2ccccc2n1C`: 19.7 µg/mL (≈ 74 µM); `Cc1ccc(N2CCN(C(=O)c3cccs3)CC2)c(C)c1`: 2.3 µg/mL (≈ 7.66 µM).

(Values after PubChem BioAssay AID1996.)
